Blank lines part the entries; values can stand above or below the compound they belong to. Activity calls are given as the source filed them.
Assays:
[1] = target: T1, High affinity choline transporter 1 (Homo sapiens, UniProt Q9GZV3); experiment: human choline transporter blockers, potency – cell-based, 5-point CRC, membrane potential dye, dose response (AID 504840); type: functional
T1 sequence (Q9GZV3 whole entry): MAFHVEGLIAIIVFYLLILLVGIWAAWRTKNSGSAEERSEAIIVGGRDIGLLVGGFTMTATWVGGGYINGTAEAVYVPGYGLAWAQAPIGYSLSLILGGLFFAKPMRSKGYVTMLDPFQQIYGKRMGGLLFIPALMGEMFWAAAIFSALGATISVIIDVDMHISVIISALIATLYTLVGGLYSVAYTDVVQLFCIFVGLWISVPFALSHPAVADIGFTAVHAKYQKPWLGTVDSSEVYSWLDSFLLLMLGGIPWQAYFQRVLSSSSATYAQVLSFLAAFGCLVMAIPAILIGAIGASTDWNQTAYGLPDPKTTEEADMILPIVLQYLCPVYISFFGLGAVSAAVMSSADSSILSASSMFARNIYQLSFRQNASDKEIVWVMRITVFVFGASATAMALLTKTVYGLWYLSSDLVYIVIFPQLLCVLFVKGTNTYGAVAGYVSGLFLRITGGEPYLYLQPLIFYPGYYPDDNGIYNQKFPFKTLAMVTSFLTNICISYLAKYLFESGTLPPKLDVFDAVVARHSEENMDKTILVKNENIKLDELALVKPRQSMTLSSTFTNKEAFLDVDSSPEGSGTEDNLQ

Fatty acid synthase [2] = target: T2, Fatty acid synthase (Homo sapiens, UniProt P49327); experiment: inhibition of human FAS-TE enzyme activity – biochemical, endpoint fluorescence intensity, uHTS hits, dose response (AID 624327); type: functional;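 note: fluorescence from hydrolysis of an O-methyl fluorescein acyl ester substrate by the enzyme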
T2 sequence (P49327 whole entry): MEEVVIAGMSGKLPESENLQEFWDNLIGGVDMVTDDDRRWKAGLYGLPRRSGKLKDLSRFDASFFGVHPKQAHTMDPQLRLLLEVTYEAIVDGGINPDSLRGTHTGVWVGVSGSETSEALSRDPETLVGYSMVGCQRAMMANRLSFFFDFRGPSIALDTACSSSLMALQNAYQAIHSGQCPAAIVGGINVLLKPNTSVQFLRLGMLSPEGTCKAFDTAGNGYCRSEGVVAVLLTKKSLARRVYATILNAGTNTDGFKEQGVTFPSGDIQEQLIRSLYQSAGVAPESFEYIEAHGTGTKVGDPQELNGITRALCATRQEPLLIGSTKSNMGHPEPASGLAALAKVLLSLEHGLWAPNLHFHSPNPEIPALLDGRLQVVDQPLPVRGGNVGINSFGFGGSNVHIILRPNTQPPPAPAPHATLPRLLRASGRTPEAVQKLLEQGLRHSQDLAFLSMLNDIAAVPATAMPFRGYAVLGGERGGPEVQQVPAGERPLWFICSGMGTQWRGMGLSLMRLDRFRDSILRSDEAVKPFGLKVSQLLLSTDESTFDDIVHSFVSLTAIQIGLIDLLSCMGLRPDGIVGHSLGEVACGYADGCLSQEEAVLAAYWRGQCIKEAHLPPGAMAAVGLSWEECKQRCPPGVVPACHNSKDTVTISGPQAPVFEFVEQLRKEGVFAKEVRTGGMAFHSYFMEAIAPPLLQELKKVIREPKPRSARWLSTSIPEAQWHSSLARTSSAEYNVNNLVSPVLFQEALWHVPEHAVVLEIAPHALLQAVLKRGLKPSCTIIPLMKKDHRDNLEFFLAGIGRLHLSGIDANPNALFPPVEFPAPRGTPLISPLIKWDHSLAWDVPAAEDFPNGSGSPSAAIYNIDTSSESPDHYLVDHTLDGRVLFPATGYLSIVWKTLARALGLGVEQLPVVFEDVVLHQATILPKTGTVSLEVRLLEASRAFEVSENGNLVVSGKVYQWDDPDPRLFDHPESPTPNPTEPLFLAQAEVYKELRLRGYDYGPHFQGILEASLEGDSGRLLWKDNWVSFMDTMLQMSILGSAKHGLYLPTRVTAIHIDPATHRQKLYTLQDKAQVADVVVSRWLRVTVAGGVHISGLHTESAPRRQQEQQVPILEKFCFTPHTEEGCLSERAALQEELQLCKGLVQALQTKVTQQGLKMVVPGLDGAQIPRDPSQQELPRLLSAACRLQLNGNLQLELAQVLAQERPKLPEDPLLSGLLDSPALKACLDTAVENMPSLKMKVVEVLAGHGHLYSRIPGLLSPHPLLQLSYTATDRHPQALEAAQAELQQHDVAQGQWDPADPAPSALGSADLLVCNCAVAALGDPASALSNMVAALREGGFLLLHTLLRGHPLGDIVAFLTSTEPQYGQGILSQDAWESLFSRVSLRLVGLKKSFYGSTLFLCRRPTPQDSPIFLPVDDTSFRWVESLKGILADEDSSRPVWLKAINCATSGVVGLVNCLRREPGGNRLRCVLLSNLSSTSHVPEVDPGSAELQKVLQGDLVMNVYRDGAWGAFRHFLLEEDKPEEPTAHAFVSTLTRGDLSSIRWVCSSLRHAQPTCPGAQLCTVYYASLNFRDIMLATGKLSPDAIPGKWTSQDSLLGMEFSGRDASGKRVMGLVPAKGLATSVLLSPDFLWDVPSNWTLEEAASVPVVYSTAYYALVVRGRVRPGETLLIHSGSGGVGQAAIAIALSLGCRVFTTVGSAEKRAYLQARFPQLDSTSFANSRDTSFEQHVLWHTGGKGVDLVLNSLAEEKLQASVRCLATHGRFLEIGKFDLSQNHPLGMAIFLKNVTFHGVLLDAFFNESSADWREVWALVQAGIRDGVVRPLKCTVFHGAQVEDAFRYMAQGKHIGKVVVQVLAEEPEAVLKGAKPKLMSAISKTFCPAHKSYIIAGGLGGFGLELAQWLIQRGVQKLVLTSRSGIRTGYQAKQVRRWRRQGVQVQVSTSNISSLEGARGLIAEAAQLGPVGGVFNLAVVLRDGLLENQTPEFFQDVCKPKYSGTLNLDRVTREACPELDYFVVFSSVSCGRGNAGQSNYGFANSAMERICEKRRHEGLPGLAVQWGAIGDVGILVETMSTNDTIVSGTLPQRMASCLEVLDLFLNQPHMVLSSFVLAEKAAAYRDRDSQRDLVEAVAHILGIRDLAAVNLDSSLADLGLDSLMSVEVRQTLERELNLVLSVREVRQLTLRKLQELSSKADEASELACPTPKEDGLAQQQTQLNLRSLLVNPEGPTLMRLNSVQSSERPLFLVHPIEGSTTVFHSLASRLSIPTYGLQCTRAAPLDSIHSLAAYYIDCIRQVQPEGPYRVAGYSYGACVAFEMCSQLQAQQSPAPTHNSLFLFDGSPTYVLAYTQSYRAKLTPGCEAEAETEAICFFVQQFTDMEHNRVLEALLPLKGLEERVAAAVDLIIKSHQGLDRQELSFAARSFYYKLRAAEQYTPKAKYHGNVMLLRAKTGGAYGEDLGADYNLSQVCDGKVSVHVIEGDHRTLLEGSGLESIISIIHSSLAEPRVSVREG

Fatty acid synthase [3] = target: T2, Fatty acid synthase; experiment: inhibition of human FAS-TE enzyme activity – biochemical, kinetic fluorescence intensity, dose response (AID 624326); type: functional;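 note: rate of fluorescence rise from hydrolysis of a fluorogenic O-methyl fluorescein ester substrate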
[4] = Luminescence Cell-Based Dose Confirmation HTS to Identify Inhibitors of Platelet Dense Granule Release. [Related pubchem assays: 1663 (Primary HTS), 1678 (Summary of Project)]; type: functional
[5] = target: Luciferin 4-monooxygenase (Photinus pyralis, UniProt P08659); experiment: inhibition of purified Photinus pyralis luciferase – biochemical, luminescence, dose response (AID 1891)
Luciferin 4-monooxygenase, sequence (P08659 whole entry): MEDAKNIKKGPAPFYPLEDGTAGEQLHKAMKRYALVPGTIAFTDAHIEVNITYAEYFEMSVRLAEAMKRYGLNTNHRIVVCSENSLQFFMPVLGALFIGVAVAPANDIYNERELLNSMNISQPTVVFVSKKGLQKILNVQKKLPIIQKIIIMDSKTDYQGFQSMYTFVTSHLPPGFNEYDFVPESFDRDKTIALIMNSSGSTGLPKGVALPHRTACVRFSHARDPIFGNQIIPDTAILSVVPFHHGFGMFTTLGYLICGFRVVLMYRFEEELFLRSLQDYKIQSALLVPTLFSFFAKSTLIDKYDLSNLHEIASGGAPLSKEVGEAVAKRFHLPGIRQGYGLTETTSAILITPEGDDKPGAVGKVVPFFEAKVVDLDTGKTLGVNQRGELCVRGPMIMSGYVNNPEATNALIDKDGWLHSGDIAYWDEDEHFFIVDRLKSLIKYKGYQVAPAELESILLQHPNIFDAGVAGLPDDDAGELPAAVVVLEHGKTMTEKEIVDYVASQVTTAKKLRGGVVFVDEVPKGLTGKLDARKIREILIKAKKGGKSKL

[6] = Trypanosoma cruzi growth suppression in host cells – NIH3T3 host cells, beta-gal luminescence, confirmation (AID 2044); type: functional, cell-based;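 note: intracellular parasites grown in NIH/3T3 mouse fibroblasts as host cells; luminescent beta-galactosidase reporter signal from transgenic T. cruzi replicating inside host cells; inhibitors lower the luminescence signal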
[7] = NIH3T3 cell viability loss – ATP luminescence, mouse fibroblasts, counter-screen, dose response (AID 2010); type: functional, cell-based;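 note: cells exposed to compound for about 90 hours before reading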
Protein skinhead-1 = target: T3, Protein skinhead-1 (Caenorhabditis elegans, UniProt P34707); type: functional
T3 sequence (P34707 whole entry): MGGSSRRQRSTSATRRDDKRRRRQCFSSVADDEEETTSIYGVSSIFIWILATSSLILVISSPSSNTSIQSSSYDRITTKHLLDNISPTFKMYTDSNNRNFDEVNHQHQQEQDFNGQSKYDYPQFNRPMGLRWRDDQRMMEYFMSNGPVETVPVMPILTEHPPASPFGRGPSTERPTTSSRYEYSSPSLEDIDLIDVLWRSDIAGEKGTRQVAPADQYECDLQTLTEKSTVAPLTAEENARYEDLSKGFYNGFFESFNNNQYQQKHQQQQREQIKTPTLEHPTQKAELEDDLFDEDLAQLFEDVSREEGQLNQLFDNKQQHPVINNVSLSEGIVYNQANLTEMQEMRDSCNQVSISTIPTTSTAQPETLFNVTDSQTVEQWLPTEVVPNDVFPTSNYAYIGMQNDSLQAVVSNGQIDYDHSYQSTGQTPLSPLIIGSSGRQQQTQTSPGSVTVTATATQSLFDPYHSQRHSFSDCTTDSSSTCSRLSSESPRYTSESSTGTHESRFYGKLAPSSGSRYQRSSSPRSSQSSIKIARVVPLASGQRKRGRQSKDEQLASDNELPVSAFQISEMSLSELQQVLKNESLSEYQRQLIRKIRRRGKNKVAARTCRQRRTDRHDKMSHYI

Paired box protein Pax-8 = Paired box protein Pax-8 (Homo sapiens, UniProt Q06710); experiment: PAX8 transcriptional activity inhibition in RMG-I – RMG-I cells, luciferase, cherry-pick, dose response (AID 687027); type: functional, cell-based;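 note: luciferase reporter driven by Pax8 target thyroperoxidase promoter measured by SteadyGlo luminescence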
Paired box protein Pax-8, sequence (Q06710 whole entry, the tested form may be a part): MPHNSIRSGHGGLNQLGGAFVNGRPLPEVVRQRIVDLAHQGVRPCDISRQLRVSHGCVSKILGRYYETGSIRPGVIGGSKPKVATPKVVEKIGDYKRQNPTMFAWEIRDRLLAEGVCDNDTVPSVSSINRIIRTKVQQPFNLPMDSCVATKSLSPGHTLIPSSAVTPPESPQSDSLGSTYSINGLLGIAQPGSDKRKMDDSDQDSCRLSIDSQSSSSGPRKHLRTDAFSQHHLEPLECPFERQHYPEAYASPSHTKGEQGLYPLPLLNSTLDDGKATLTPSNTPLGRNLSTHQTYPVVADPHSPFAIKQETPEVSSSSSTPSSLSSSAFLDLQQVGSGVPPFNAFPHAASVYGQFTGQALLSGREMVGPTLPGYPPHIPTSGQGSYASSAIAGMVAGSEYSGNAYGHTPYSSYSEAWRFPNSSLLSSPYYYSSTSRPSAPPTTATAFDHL

[8] = blockers of HIV-1 envelope-mediated cell-cell fusion – cherry-pick, dose response (AID 652057); type: functional, cell-based
[9] = HIV-1 AD8 envelope cell-cell fusion blockers – cherry-pick, dose response (AID 652062); type: functional, cell-based;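 note: luciferase signal from cell-cell fusion driven by HIV-1 clade B AD8 Env; potency is for inhibitors of fusion seen as a drop in luminescence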
[10] = P. falciparum Dd2 growth inhibitors, dose response, SYBR Green, cherry-picked samples (AID 1159567); type: functional, cell-based

IC50 [1]: 12.6 µM (active) | IC50 (Fatty acid synthase [2]): 5.09 µM (active) | IC50 (Fatty acid synthase [3]): 5.75 µM (active)
Structure (SMILES): CCCCCc1nc2sc3c(c2c(=O)n1NC(=O)c1ccc([N+](=O)[O-])cc1)CC(C)(C)OC3

IC50 (Fatty acid synthase [2]): 30 µM (inactive) | IC50 (Fatty acid synthase [3]): 60.6 µM (inactive)
Structure (SMILES): CCC(C)NC(=O)CSc1nc2c(sc(=S)n2Cc2ccco2)c(=O)n1-c1ccccc1 (configuration not stated)

IC50 (Fatty acid synthase [2]): 2.69 µM (active) | IC50 (Fatty acid synthase [3]): 2.31 µM (active)
Structure (SMILES): O=C(/C=C/c1cccc([N+](=O)[O-])c1)N1CCN(S(=O)(=O)c2cccs2)CC1

IC50 (Fatty acid synthase [2]): 5.11 µM (active) | IC50 (Fatty acid synthase [3]): 6.9 µM (active)
Structure (SMILES): Cc1ccc(S(=O)(=O)Nc2cccc(-c3ccc(N4CCCCCC4)nn3)c2)c(C)c1

IC50 (Fatty acid synthase [2]): 10.5 µM (active) | IC50 (Fatty acid synthase [3]): 10.7 µM (active)
Structure (SMILES): CCc1cccc(C)c1NC(=O)COC(=O)c1cc([N+](=O)[O-])ccc1N1CCOCC1

Structure (SMILES): Cc1cccc(OCC(=O)Nc2nc[nH]n2)c1C
EC50 [4]: > 112 µM (not active)

EC50 [5]: > 112 µM (not active)
Structure (SMILES): Cc1cccc(OCC(=O)Nc2nnc[nH]2)c1C

Structure (SMILES): COCCn1cc(C(=O)N2CCC(C)CC2)c2c3ccccc3n(C)c2c1=O
EC50 [5]: > 112 µM (not active) | EC50 [4]: > 112 µM (not active)

Structure (SMILES): CCOC(=O)NCCc1ccc(OC)cc1
EC50 [5]: > 112 µM (not active) | EC50 [4]: > 112 µM (not active)

IC50 (Fatty acid synthase [2]): 11.7 µM (active) | IC50 (Fatty acid synthase [3]): 9.36 µM (active)
Structure (SMILES): O=C(Nc1c(C(=O)N2CCOCC2)cnn1-c1ccccc1)c1ccc([N+](=O)[O-])cc1

Structure (SMILES): CC1=C(C(=O)c2ccccc2)C(c2cn(-c3ccccc3)nc2-c2ccc(Cl)cc2)NC(S)=N1 (configuration not stated)
EC50 [6]: 2.33 µM (active) | EC50 [7]: > 30 µM (not active) | IC50 (Protein skinhead-1): > 100 µM (inactive)

IC50 (Protein skinhead-1): 15.6 µM (active)
Structure (SMILES): Cc1nn2cc(-c3ccc(Cl)cc3)nc2s1

Structure (SMILES): CCOC(=O)N1CCN(CC(=O)N2CCC(C(N)=O)CC2)CC1
EC50 [5]: > 112 µM (not active) | EC50 [4]: > 112 µM (not active)

Structure (SMILES): CCOC(=O)N1CCN(Cc2nc3c(c(=O)n(C)c(=O)n3C)n2Cc2cccc3ccccc23)CC1
EC50 [5]: > 112 µM (not active) | EC50 [4]: > 112 µM (not active)

IC50 (Protein skinhead-1): > 100 µM (inactive)
Structure (SMILES): CC(=O)c1cccc(NC(=O)N2CCCC2C(=O)Nc2c(C)cccc2C)c1 (configuration not stated)

IC50 (Fatty acid synthase [2]): 1.83 µM (active) | IC50 (Fatty acid synthase [3]): 4.26 µM (active)
Structure (SMILES): COc1ccc(C(=O)N/C(=C\c2cn(S(=O)(=O)N(C)C)c3ccccc23)C(=O)N2CCOCC2)cc1

Structure (SMILES): CCOC(=O)[C@@H]1[C@H]2COc3ccc(Br)cc3[C@@H]2N2C(=O)N(c3cccc(Cl)c3)C(=O)[C@@]12C
IC50 (Fatty acid synthase [2]): 22.9 µM (inactive) | IC50 (Fatty acid synthase [3]): 11.8 µM (active)

AC50 (Paired box protein Pax-8): 11.9 µM (active)
Structure (SMILES): C[C@H](CO)N1C[C@H](C)[C@@H](CN(C)Cc2ccc(C(F)(F)F)cc2)Oc2ccc(NS(=O)(=O)c3ccc(F)cc3)cc2CC1=O

Structure (SMILES): CC(C)(C)OC(=O)N1CCc2onc(-c3ccc(Br)cc3)c2C1=O
AC50 [8]: 64.9 µM (active) | AC50 [9]: 59.9 µM (active)

AC50 (Paired box protein Pax-8): 2.87 µM (active)
Structure (SMILES): C[C@@H]1CCCCO[C@H](CN(C)S(=O)(=O)c2ccc(Cl)cc2)[C@@H](C)CN([C@@H](C)CO)C(=O)c2cc(NC(=O)Nc3ccc(C(F)(F)F)cc3)ccc2O1

Structure (SMILES): COc1ccc(NC(=O)N(C)C[C@H]2OCc3ccccc3-c3c(n(C)c4ccccc34)C(=O)N([C@@H](C)CO)C[C@H]2C)c(OC)c1
AC50 [10]: 4.92 µM (active)

Structure (SMILES): COc1ccc(CN2C[C@H](C)[C@H](OC)CN(C)C(=O)c3cc(NC(=O)c4nc5ccccc5s4)ccc3OC[C@@H]2C)cc1
AC50 [10]: 5.29 µM (active)

Structure (SMILES): C[C@H](CO)N1C[C@H](C)[C@@H](CN(C)Cc2ccc(Oc3ccccc3)cc2)Oc2ccc(NS(=O)(=O)c3cn(C)cn3)cc2CC1=O
AC50 [10]: 9.82 µM (active)

Structure (SMILES): COc1cccc(S(=O)(=O)N2CCC3(CC2)CN[C@@H](CO)c2[nH]c4cc(OC)ccc4c23)c1
AC50 [10]: 5.39 µM (active)

Structure (SMILES): C[C@H](CO)N1C[C@H](C)[C@H](CN(C)C(=O)C2CC2)Oc2cc(C#Cc3ccccc3)ccc2S1(=O)=O
AC50 [10]: 4.27 µM (active)

Structure (SMILES): C[C@@H]1CN([C@H](C)CO)S(=O)(=O)c2ccc(C#Cc3ccccc3)cc2O[C@H]1CN(C)S(=O)(=O)c1cn(C)cn1
AC50 [10]: 3.7 µM (active)

— ChEMBL document CHEMBL1201862, “PubChem BioAssay data set” (2004)
